Like-named read-outs stand apart in the source and are kept apart here.
Experiments:
[1] = target: T1, MAO-B (Rattus norvegicus, UniProt P19643); experiment: Cerebellar MAO-B activity (radiochemical, 14C-PEA) after perinatal exposure; format: in vivo; details: for decrease of cerebellar MAO-B activity: male pups PD21, maternal oral MeHg 1 mg/kg/day GD7-PND7 and/or PCB153 20 mg/kg/day GD10–GD16, vs control 19.26 ± 2.05 nmol/mg protein/h
T1 construct: from tissue; host or cells: rat cerebellum homogenate (dams and PD21 offspring)
Experimental: (§1) The experimental regimen comprises 0.5 and 1 mg MeHg/kg (body weight) bw/day, administered to rat dams in the drinking water from gestational day (GD)7 to postnatal (PD)7, and/or PCB153 (20 mg/kg/day) dissolved in corn oil, administered to rats from GD10 to GD16.
(§2) The endpoints investigated in rats included total cholinergic MRs and MAO-B activity in cerebellum and total MRs in lymphocytes at weaning (i.e., PD21) both in dams and their offspring.
(§3) At the day of sacrifice, rat brains were rapidly dissected on ice to isolate cerebellum from dams and offspring and stored at −80°C until the analyses were performed. Spleens were also collected.
(ii) MAO-B activity was determined radiochemically as described by Young et al., 1986 [71] using 10 μM ^14C-PEA as the substrate. Specific MAO-B activity was determined in the presence of 100 μM pargyline hydrochloride. The reaction was started by addition of ^14C-PEA to 50 μL of tissue homogenate (0.2 mL final volume) and stopped by addition of 0.1 mL citric acid 2 M after a 15-min incubation at 37°C. Deaminated reaction products were extracted into 3 mL toluene-ethylacetate (1 : 1, v/v) and the radioactivity contained in a 1-mL aliquot of the organic phase was counted in scintillation counter. The enzyme activity was expressed as nmol/mg protein/h.

[2] = tested on: cholinergic muscarinic receptors (MRs); format: in vivo, rat; details: for increase of cerebellar MRs density (Bmax): MeHg 1 mg/kg/day GD7-PND7; for effect on cerebellar dissociation constant (Kd) of [3H]QNB: rat, in vivo
[3] = target: cholinergic muscarinic receptors (MRs) in lymphocytes; experiment: Spleen lymphocyte MR density and affinity after perinatal exposure; format: in vivo, rat
Experimental: as §1, §2, §3
(i) Rat lymphocytes were obtained from the spleen of controls and differently treated animals. MR density and affinity in rat lymphocytes were determined as described in [52].

[4] = format: in vivo, rat
Experimental: as §1
Measurements of total Hg in cerebellum and blood also complemented the molecular studies to correlate neurochemical changes with the internal doses (see methods in [43, 52, 73]).

[5] = format: in vivo, rat; details: MeHg 1 mg/kg/day; whole brain
[6] = tested on: MAO-B; details: St. Lawrence River (Lake St. Pierre, Quebec) fish-eating population; ref Stamler et al. 2006 [68]; cited from earlier work
[7] = 21-day-old, same treatments, mean ± S.D.

T1 sequence (P19643 whole entry): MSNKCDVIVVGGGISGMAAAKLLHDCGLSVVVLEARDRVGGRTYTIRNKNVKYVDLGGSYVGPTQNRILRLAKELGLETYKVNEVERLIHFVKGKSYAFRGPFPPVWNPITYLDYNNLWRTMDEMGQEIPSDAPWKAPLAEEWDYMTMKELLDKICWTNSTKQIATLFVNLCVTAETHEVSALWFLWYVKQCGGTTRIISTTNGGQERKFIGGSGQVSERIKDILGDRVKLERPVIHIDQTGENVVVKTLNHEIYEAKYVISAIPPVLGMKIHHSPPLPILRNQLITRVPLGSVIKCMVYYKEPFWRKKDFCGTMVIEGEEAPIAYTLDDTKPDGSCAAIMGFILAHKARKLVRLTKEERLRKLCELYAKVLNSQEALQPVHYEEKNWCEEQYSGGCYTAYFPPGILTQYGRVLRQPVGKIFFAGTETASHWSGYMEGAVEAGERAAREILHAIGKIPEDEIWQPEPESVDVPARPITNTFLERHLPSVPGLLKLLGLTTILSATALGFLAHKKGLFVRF

For `[CH3][Hg][Cl]` [MeHg, methylmercury], the “effect on MAO-B activity” value ([1]; lower MeHg dose 0.5 mg/kg/day GD7-PND7, male and female offspring) was “no effects”, the “decrease of cerebellar MAO-B activity” value [1] was 35% and the “increase of cerebellar MRs density (Bmax)” value ([2]; dams, PD21) was 87%. The “effect on cerebellar MR density” value ([2]; lower MeHg dose 0.5 mg/kg/day alone or in combination with PCB153, mother and offspring) was “did not cause any change”, the “increase of cerebellar MRs density (Bmax)” value ([2]; male pups PD21) was 27% and the “effect on cerebellar dissociation constant (Kd) of [3H]QNB” value [2] was “did not affect”. The “effect on lymphocyte Kd values” ([3]; MeHg 1 mg/kg/day, dams and offspring) was “absence of any change”, the “increase of lymphocyte MR density (Bmax)” value ([3]; dams, MeHg 1 mg/kg/day GD7-PND7, vs control 33 ± 4 fmol/million cells) was 139% and the “increase of lymphocyte MR density (Bmax)” value ([3]; female offspring 21 days old, MeHg 1 mg/kg/day, vs control 37 ± 4 fmol/million cells) was 73%. The “effect on lymphocyte Kd values” ([3]; lower MeHg dose 0.5 mg/kg/day) was “devoid of any effect”, the “effect on lymphocyte MR density” value ([3]; lower MeHg dose 0.5 mg/kg/day, all groups, day 21 postpartum) was “did not significantly differ” and the “increase of lymphocyte MR density (Bmax)” value ([3]; male offspring 21 days old, MeHg 1 mg/kg/day, vs control 41 ± 8 fmol/million cells) was 49%. The “Blood Hg, Dams” value ([4]; 1 mg MeHg/kg bw/day GD7-PD7 and/or 20 mg PCB153/kg bw/day GD10–GD16, mean ± S.D.) was 11.33 ± 2.26 n = 4 μg/ml, the “Blood Hg, Offspring Female” value [4, 7] was 1.31 ± 0.40 n = 4 μg/ml and the “Blood Hg, Offspring Male” value [4, 7] was 1.35 ± 0.40 n = 4 μg/ml. For the same compound, the “Brain Hg, Offspring Female” value [4, 7] was 1.52 ± 0.33 n = 4 μg/g, the “Brain Hg, Offspring Male” value [4, 7] was 1.67 ± 0.43 n = 4 μg/g and the “Hg in rat blood at PD21” value ([4]; perinatal 1 mg MeHg/kg/day) was 1300 ppb. The “cerebral Hg levels in weaning rats” value ([4]; perinatal 1 mg MeHg/kg/day) was 1.5–2.8 ppm, the “blood Hg levels in weaning rats” value ([4]; perinatal 1 mg MeHg/kg/day, both pup genders) was 1.3 ± 0.4 µg/mL and the “Hg levels in pup blood” value ([4]; pups, both genders, MeHg 1 mg/kg/day) was 1.35 ± 0.4 mg/L. The “Brain Hg, Dams” value ([4]; same treatments) was 7.53 µg/g, the “brain Hg concentration, mother versus offspring” value [5] was “about five-fold higher” and the “blood-Hg concentrations associated with MeHg-induced reduction in MAO-B activity” value [6] was “above 3.4 μg/L”.
For `Clc1cc(Cl)c(-c2cc(Cl)c(Cl)cc2Cl)cc1Cl` [PCB153, 2,2′,4,4′,5,5′-hexachlorobiphenyl], the “decrease of cerebellar MAO-B activity” value [1] was 45%, the “effect on cerebellar MRs density” value ([2]; adult and offspring PD21, PCB153 20 mg/kg/day GD10–GD16 alone or with MeHg 1 mg/kg/day) was “did not modify” and the “effect on cerebellar dissociation constant (Kd) of [3H]QNB” value [2] was “did not affect”. The “effect of PCB153 coexposure on brain Hg concentrations” value ([4]; MeHg 1 mg/kg/day + PCB153) was “not affected”.
